Results as given in patent publication US20230322767A1, “ARYL SUBSTITUTED PYRROLO-PYRIDINONES AND THERAPEUTIC USES THEREOF” (Bayer Aktiengesellschaft, priority 2020, published 2023).
Read-outs that look alike come from different tables or passages of the source.

Experiments:
Assay type in all cases: biochemical
[1] = biological target: wild-type Epidermal Growth Factor Receptor (EGFR) (Homo sapiens (Human), UniProt P00533); assay: WT-EGFR Kinase Assay (TR-FRET, 2 mM ATP)
Procedure, shortened: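 GST-tagged human EGFR (R669–A1210, Sf9-expressed) preincubated 15 min at 22° C with compound in pH 7.0 Hepes/MgCl2 buffer, then reacted at 2 mM ATP with a biotinylated peptide substrate. Phosphorylation detected by TR-FRET (streptavidin-XL665, Tb-cryptate anti-phosphotyrosine) as the 665/620 nm emission ratio.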

CSNK1A1 = CSNK1A1 (Homo sapiens (Human), UniProt P48729); assay: CSNK1A1 Assay 2 (ADP-Glo, 1 μM ATP); conditions: median, read-out: CSNK1A1 Assay 2 IC50 [mol/l] (median)
Chain of CSNK1A1 (P48729 whole entry): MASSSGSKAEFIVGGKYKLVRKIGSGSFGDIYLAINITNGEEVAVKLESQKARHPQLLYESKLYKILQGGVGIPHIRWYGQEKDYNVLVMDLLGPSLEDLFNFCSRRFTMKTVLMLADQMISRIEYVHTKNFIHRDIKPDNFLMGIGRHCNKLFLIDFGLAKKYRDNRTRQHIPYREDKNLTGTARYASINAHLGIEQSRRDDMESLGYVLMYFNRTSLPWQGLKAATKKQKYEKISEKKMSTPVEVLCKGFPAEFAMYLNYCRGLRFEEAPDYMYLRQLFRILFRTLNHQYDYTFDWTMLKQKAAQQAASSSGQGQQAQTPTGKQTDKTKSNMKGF
Procedure, shortened: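 Enzyme (~0.0375 ng/μL) preincubated 15 min at 22° C with compound in HEPES pH 7.5 buffer, then reacted with 1 μM ATP and biotin-Ahx-KRRRAL-pS-VASLPGL peptide. ADP product measured by ADP-Glo luminescence after 1 h ATP depletion and 1 h detection at 22° C.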

CSNK1D = CSNK1D (Homo sapiens (Human), UniProt P48730); assay: CSNK1D Assay (ADP-Glo, 1 μM ATP); conditions: median, read-out: CSNK1D IC50 [mol/l] (median)
Chain of CSNK1D (P48730 whole entry): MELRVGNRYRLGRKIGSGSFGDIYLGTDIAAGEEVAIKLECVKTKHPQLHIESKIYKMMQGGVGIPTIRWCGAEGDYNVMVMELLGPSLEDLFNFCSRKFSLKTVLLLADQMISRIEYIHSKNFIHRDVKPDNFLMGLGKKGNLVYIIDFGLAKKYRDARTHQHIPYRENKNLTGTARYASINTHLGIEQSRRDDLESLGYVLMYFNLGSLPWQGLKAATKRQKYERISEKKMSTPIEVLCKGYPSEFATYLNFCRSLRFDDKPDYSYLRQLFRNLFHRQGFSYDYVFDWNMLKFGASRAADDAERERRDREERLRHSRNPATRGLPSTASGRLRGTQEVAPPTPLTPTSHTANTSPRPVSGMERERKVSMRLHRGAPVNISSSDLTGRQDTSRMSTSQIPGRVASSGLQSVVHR
Procedure, shortened: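 Enzyme preincubated with compound 15 min at 22° C in 50 mM HEPES pH 7.5 buffer with 10 mM MgCl2, 1 mM DTT; kinase reaction run at 1 μM ATP with biotinylated peptide substrate. ADP formed was detected by ADP-Glo luminescence as the measure of activity.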

[2] = EGFR Wildtyp 2 mM ATP IC50 [mol/l] (median), median or individual measurements

Chain of wild-type Epidermal Growth Factor Receptor (EGFR) (P00533 669-1210): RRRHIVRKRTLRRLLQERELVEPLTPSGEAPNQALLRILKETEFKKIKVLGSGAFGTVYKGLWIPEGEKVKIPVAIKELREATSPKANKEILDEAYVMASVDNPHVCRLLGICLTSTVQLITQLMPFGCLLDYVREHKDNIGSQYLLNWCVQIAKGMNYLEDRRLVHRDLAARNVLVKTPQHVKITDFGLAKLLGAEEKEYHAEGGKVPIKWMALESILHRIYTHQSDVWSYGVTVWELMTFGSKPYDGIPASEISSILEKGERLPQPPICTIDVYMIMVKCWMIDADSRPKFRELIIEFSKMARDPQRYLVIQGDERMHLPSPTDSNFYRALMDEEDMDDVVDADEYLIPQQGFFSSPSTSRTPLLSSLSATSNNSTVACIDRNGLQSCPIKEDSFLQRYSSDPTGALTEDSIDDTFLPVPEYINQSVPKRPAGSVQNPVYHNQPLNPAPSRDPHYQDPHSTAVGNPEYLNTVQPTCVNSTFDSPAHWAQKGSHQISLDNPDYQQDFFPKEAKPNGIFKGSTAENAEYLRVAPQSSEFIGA

SMILES: Cn1ccc2[nH]c(-c3ccnc(NC(=O)C(CC(F)F)c4ccc(F)cc4)c3)c(-c3ccc(Cl)s3)c2c1=O (racemic) [Example 133, N-{4-[3-(5-chloro-2-thienyl)-5-methyl-4-oxo-4,5-dihydro-1H-pyrrolo[3,2-c]pyridin-2-yl]pyridin-2-yl}-4,4-difluoro-2-(4-fluorophenyl)butanamide]
- IC50 [1, 2]: > 20000 nM
- IC50 (CSNK1A1): 2.3 nM
- IC50 (CSNK1D): 4.8 nM

SMILES: CC(C(=O)Nc1cc(-c2[nH]c3ccn(C)c(=O)c3c2-c2ccc(F)nc2)ccn1)c1ccc(F)cc1 (racemic) [Example 145, 2-(4-fluorophenyl)-N-{4-[3-(6-fluoropyridin-3-yl)-5-methyl-4-oxo-4,5-dihydro-1H-pyrrolo[3,2-c]pyridin-2-yl]pyridin-2-yl}propanamide]
- IC50 [1, 2]: > 20000 nM
- IC50 (CSNK1A1): 9.7 nM
- IC50 (CSNK1D): 10 nM

SMILES: CC1(C)Cc2[nH]c(-c3ccnc(NC(=O)Cc4ccc(F)cc4)c3)c(-c3ccccc3)c2C(=O)N1 [Example 82, N-[4-(6,6-dimethyl-4-oxo-3-phenyl-4,5,6,7-tetrahydro-1H-pyrrolo[3,2-c]pyridin-2-yl)pyridin-2-yl]-2-(4-fluorophenyl)acetamide]
- IC50 ([1]; read-out: EGFR Wildtyp 2 mM ATP IC50 [mol/l] (median), median or individual measurements): > 20000 nM
- IC50 (CSNK1A1): 1.3 nM
- IC50 (CSNK1D): 2.4 nM

SMILES: Cn1cc(CC(F)F)c2[nH]c(-c3ccnc(NC(=O)C(CC(F)F)c4ccc(F)cc4)c3)c(-c3ccccc3)c2c1=O (racemic) [Example 147, (rac)-N-{4-[7-(2,2-difluoroethyl)-5-methyl-4-oxo-3-phenyl-4,5-dihydro-1H-pyrrolo[3,2-c]pyridin-2-yl]pyridin-2-yl}-4,4-difluoro-2-(4-fluorophenyl)butanamide]
- IC50 [1, 2]: > 20000 nM
- IC50 (CSNK1A1): 4.3 nM
- IC50 (CSNK1D): 2.9 nM
